The text below walks through data of patent US20230066008A1, “ANTIPARASITIC COMPOSITION” (DERMALIQ THERAPEUTICS, INC., priority 2020, published 2023).

The structures appear in SMILES notation. Read-outs that look alike come from different tables or passages of the source.

The conditions of this data set: for Solubility (%w/v): crotamiton tests. On the procedure: 500 mg crotamiton (SynTech, Ph.Eur. grade) is weighed in a 5-ml volumetric flask; the flask is then filled to 5 ml with F6H8 (Novaliq, purity >99%), closed and shaken for 5 min at 280 rpm, RT.

On to `CC=CC(=O)N(CC)c1ccccc1C` [Crotamiton, crotamiton], for which the “Appearance of resulting solution” value (100 mg/ml (10% w/v) in F6H8, shaken 5 min at 280 rpm, RT) is on record as “clear”. Also, the “Solubility (%w/v)” value runs as follows: (solvent F4H5) more than 12%w/v; (solvent F6H2) “^~6%w/v”; (solvent F6H8) more than 12%w/v.
